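The compound was tested at five concentrations on cells cultured in 96-well plates, with a 48-hour exposure period. At the TGI there is no net growth.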
What was measured:
Assay in all cases: inhibition of tumour cell growth, NCI panel, 48 h
HOP-92 NSCLC = system: HOP-92 NSCLC
UACC-62 melanoma = system: UACC-62 melanoma
SF-295 CNS = system: SF-295 CNS
KM12 colon = system: KM12 colon
MALME-3M melanoma = system: MALME-3M melanoma
U251 CNS = system: U251 CNS
SK-MEL-28 melanoma = system: SK-MEL-28 melanoma
A549 NSCLC = system: A549 NSCLC
SN12C renal = system: SN12C renal
EKVX NSCLC = system: EKVX NSCLC
SF-268 CNS = system: SF-268 CNS
HT29 colon = system: HT29 colon
SW-620 colon = system: SW-620 colon
HCT-116 colon = system: HCT-116 colon
DLD-1 colon = system: DLD-1 colon
RXF 393 renal = system: RXF 393 renal
K-562 leukemia = system: K-562 leukemia
A498 renal = system: A498 renal
KM20L2 colon = system: KM20L2 colon
SF-539 CNS = system: SF-539 CNS
HCT-15 colon = system: HCT-15 colon
SK-MEL-5 melanoma = system: SK-MEL-5 melanoma
SNB-78 CNS = system: SNB-78 CNS
ACHN renal = system: ACHN renal
HOP-62 NSCLC = system: HOP-62 NSCLC
786-0 renal = system: 786-0 renal
NCI-H23 lung = system: NCI-H23 lung
NCI-H460 lung = system: NCI-H460 lung
SNB-19 CNS = system: SNB-19 CNS
IGROV1 ovarian = system: IGROV1 ovarian
HOP-18 NSCLC = system: HOP-18 NSCLC
LOX IMVI melanoma = system: LOX IMVI melanoma
OVCAR-4 ovarian = system: OVCAR-4 ovarian
COLO 205 colon = system: COLO 205 colon
SK-MEL-2 melanoma = system: SK-MEL-2 melanoma
UACC-257 melanoma = system: UACC-257 melanoma
CAKI-1 renal = system: CAKI-1 renal
TK-10 renal = system: TK-10 renal
DMS 273 small cell lung = system: DMS 273 small cell lung
M19-MEL melanoma = system: M19-MEL melanoma
DMS 114 small cell lung = system: DMS 114 small cell lung
SNB-75 CNS = system: SNB-75 CNS
XF 498 CNS = system: XF 498 CNS
SR leukemia = system: SR leukemia
CCRF-CEM leukemia = system: CCRF-CEM leukemia
OVCAR-5 ovarian = system: OVCAR-5 ovarian
OVCAR-8 ovarian = system: OVCAR-8 ovarian
RPMI-8226 leukemia = system: RPMI-8226 leukemia
OVCAR-3 ovarian = system: OVCAR-3 ovarian
SK-OV-3 ovarian = system: SK-OV-3 ovarian
M14 melanoma = system: M14 melanoma
HCC-2998 colon = system: HCC-2998 colon
UO-31 renal = system: UO-31 renal
LXFL 529 NSCLC = system: LXFL 529 NSCLC
HL-60(TB) leukemia = system: HL-60(TB) leukemia
MOLT-4 leukemia = system: MOLT-4 leukemia
NCI-H522 lung = system: NCI-H522 lung
BT-549 breast = system: BT-549 breast
DU-145 prostate = system: DU-145 prostate
NCI/ADR-RES ovarian = system: NCI/ADR-RES ovarian
MCF7 breast = system: MCF7 breast
PC-3 prostate = system: PC-3 prostate
HS 578T breast = system: HS 578T breast
MDA-MB-231 breast = system: MDA-MB-231 breast
NCI-H226 lung = system: NCI-H226 lung
MDA-MB-435 = system: MDA-MB-435
MDA-N = system: MDA-N

`COc1ccc(C(=O)NCCC2=CCCCC2)cc1` was tested, and the TGI (HOP-92 NSCLC) was over 100 µM, the TGI (UACC-62 melanoma) was over 100 µM and the TGI (SF-295 CNS) was over 100 µM. For the same compound, the TGI (KM12 colon) was over 100 µM, the TGI (MALME-3M melanoma) was over 100 µM and the TGI (U251 CNS) was over 100 µM. It also gave a TGI (SK-MEL-28 melanoma) of over 100 µM, a TGI (A549 NSCLC) of over 100 µM and a TGI (SN12C renal) of over 100 µM. The TGI (EKVX NSCLC) was over 100 µM, the TGI (SF-268 CNS) was over 100 µM and the TGI (HT29 colon) was over 100 µM. It also gave a TGI (SW-620 colon) of over 100 µM, a TGI (HCT-116 colon) of over 100 µM and a TGI (DLD-1 colon) of over 100 µM. It also gave a TGI (RXF 393 renal) of over 100 µM, a TGI (K-562 leukemia) of over 100 µM and a TGI (A498 renal) of over 100 µM. The TGI (KM20L2 colon) was over 100 µM, the TGI (SF-539 CNS) was over 100 µM and the TGI (HCT-15 colon) was over 100 µM. It also gave a TGI (SK-MEL-5 melanoma) of over 100 µM, a TGI (SNB-78 CNS) of over 100 µM and a TGI (ACHN renal) of over 100 µM. The TGI (HOP-62 NSCLC) was over 100 µM, the TGI (786-0 renal) was over 100 µM and the TGI (NCI-H23 lung) was over 100 µM. For the same compound, the TGI (NCI-H460 lung) was over 100 µM, the TGI (SNB-19 CNS) was over 100 µM and the TGI (IGROV1 ovarian) was over 100 µM. It also gave a TGI (HOP-18 NSCLC) of over 100 µM, a TGI (LOX IMVI melanoma) of over 100 µM and a TGI (OVCAR-4 ovarian) of over 100 µM. It also gave a TGI (COLO 205 colon) of over 100 µM, a TGI (SK-MEL-2 melanoma) of over 100 µM and a TGI (UACC-257 melanoma) of over 100 µM. It also gave a TGI (CAKI-1 renal) of over 100 µM, a TGI (TK-10 renal) of over 100 µM and a TGI (DMS 273 small cell lung) of over 100 µM. It also gave a TGI (M19-MEL melanoma) of over 100 µM, a TGI (DMS 114 small cell lung) of over 100 µM and a TGI (SNB-75 CNS) of over 100 µM. It also gave a TGI (XF 498 CNS) of over 100 µM, a TGI (SR leukemia) of over 100 µM and a TGI (CCRF-CEM leukemia) of over 100 µM. The TGI (OVCAR-5 ovarian) was over 100 µM, the TGI (OVCAR-8 ovarian) was over 100 µM and the TGI (RPMI-8226 leukemia) was over 100 µM. The TGI (OVCAR-3 ovarian) was over 100 µM.

For `CC(C)(C)C1=Nc2c(Br)cc(C(C)(C)C)cc2C(C(F)(F)F)(C(F)(F)F)O1`, the TGI (UACC-62 melanoma) was over 100 µM, the TGI (SF-295 CNS) was over 100 µM and the TGI (KM12 colon) was over 100 µM. For the same compound, the TGI (MALME-3M melanoma) was over 100 µM, the TGI (U251 CNS) was 44.7 µM and the TGI (SK-MEL-28 melanoma) was over 100 µM. It also gave a TGI (A549 NSCLC) of over 100 µM, a TGI (SN12C renal) of over 100 µM and a TGI (EKVX NSCLC) of over 100 µM. The TGI (SK-OV-3 ovarian) was over 100 µM, the TGI (HT29 colon) was over 100 µM and the TGI (SW-620 colon) was over 100 µM. For the same compound, the TGI (HCT-116 colon) was over 100 µM, the TGI (DLD-1 colon) was over 100 µM and the TGI (RXF 393 renal) was 43.5 µM. The TGI (M14 melanoma) was over 100 µM, the TGI (K-562 leukemia) was over 100 µM and the TGI (KM20L2 colon) was over 100 µM. For the same compound, the TGI (SF-539 CNS) was over 100 µM, the TGI (HCT-15 colon) was over 100 µM and the TGI (HCC-2998 colon) was 65.1 µM. It also gave a TGI (SK-MEL-5 melanoma) of over 100 µM, a TGI (UO-31 renal) of over 100 µM and a TGI (SNB-78 CNS) of over 100 µM. It also gave a TGI (ACHN renal) of over 100 µM, a TGI (HOP-62 NSCLC) of over 100 µM and a TGI (LXFL 529 NSCLC) of over 100 µM. It also gave a TGI (786-0 renal) of over 100 µM, a TGI (HL-60(TB) leukemia) of 47.4 µM and a TGI (NCI-H23 lung) of over 100 µM. It also gave a TGI (NCI-H460 lung) of over 100 µM, a TGI (SNB-19 CNS) of over 100 µM and a TGI (IGROV1 ovarian) of over 100 µM. The TGI (LOX IMVI melanoma) was 31.3 µM, the TGI (OVCAR-4 ovarian) was over 100 µM and the TGI (COLO 205 colon) was over 100 µM. It also gave a TGI (SK-MEL-2 melanoma) of over 100 µM, a TGI (UACC-257 melanoma) of over 100 µM and a TGI (TK-10 renal) of over 100 µM. For the same compound, the TGI (DMS 273 small cell lung) was over 100 µM, the TGI (M19-MEL melanoma) was over 100 µM and the TGI (DMS 114 small cell lung) was 86.3 µM. The TGI (SNB-75 CNS) was over 100 µM, the TGI (XF 498 CNS) was 59.4 µM and the TGI (MOLT-4 leukemia) was over 100 µM. The TGI (SR leukemia) was over 100 µM, the TGI (CCRF-CEM leukemia) was over 100 µM and the TGI (OVCAR-5 ovarian) was over 100 µM. It also gave a TGI (OVCAR-8 ovarian) of over 100 µM, a TGI (NCI-H522 lung) of over 100 µM and a TGI (RPMI-8226 leukemia) of 66.3 µM. For the same compound, the TGI (OVCAR-3 ovarian) was 37 µM.

In the case of `COc1ccc(-c2nc(N)n(C)c2SSc2c(-c3ccc(OC)cc3)nc(N)n2C)cc1`, the TGI (HOP-92 NSCLC) is reported as 6.21 µM, the TGI (UACC-62 melanoma) is reported as 10 µM and the TGI (SF-295 CNS) is reported as 25.5 µM. For the same compound, the TGI (BT-549 breast) was 5.54 µM, the TGI (KM12 colon) was 26.7 µM and the TGI (DU-145 prostate) was 31.4 µM. For the same compound, the TGI (MALME-3M melanoma) was 22.2 µM, the TGI (U251 CNS) was 26.2 µM and the TGI (SK-MEL-28 melanoma) was 10.2 µM. The TGI (A549 NSCLC) was 45.4 µM, the TGI (SN12C renal) was 25.5 µM and the TGI (EKVX NSCLC) was 44.3 µM. For the same compound, the TGI (SK-OV-3 ovarian) was 32.6 µM, the TGI (SF-268 CNS) was 33.7 µM and the TGI (HT29 colon) was 28.5 µM. For the same compound, the TGI (SW-620 colon) was 5.09 µM, the TGI (HCT-116 colon) was 7.49 µM and the TGI (NCI/ADR-RES ovarian) was 35.1 µM. For the same compound, the TGI (MCF7 breast) was 23 µM, the TGI (DLD-1 colon) was 15.3 µM and the TGI (PC-3 prostate) was 18.2 µM. The TGI (RXF 393 renal) was 6.63 µM, the TGI (M14 melanoma) was 4.87 µM and the TGI (K-562 leukemia) was 15.5 µM. The TGI (A498 renal) was 35.7 µM, the TGI (KM20L2 colon) was 30.9 µM and the TGI (SF-539 CNS) was 13.4 µM. The TGI (HS 578T breast) was 29.7 µM, the TGI (HCT-15 colon) was 8.73 µM and the TGI (HCC-2998 colon) was 31.8 µM. It also gave a TGI (SK-MEL-5 melanoma) of 4.15 µM, a TGI (UO-31 renal) of 11.9 µM and a TGI (ACHN renal) of 8.3 µM. It also gave a TGI (HOP-62 NSCLC) of 32.1 µM, a TGI (LXFL 529 NSCLC) of 3.4 µM and a TGI (786-0 renal) of 29.2 µM. The TGI (HL-60(TB) leukemia) was 14.1 µM, the TGI (NCI-H23 lung) was 17.8 µM and the TGI (NCI-H460 lung) was 42.5 µM. The TGI (SNB-19 CNS) was 27.2 µM, the TGI (IGROV1 ovarian) was 29.4 µM and the TGI (HOP-18 NSCLC) was 17.8 µM. It also gave a TGI (MDA-MB-231 breast) of 19.7 µM, a TGI (LOX IMVI melanoma) of 4.22 µM and a TGI (OVCAR-4 ovarian) of 15.9 µM. The TGI (COLO 205 colon) was 4.76 µM, the TGI (SK-MEL-2 melanoma) was 29.5 µM and the TGI (UACC-257 melanoma) was 14.5 µM. For the same compound, the TGI (NCI-H226 lung) was 37.3 µM, the TGI (CAKI-1 renal) was 24.6 µM and the TGI (TK-10 renal) was 27.6 µM. For the same compound, the TGI (DMS 273 small cell lung) was 13.4 µM, the TGI (M19-MEL melanoma) was 4.67 µM and the TGI (DMS 114 small cell lung) was 4.61 µM. For the same compound, the TGI (SNB-75 CNS) was 24.8 µM, the TGI (MDA-MB-435) was 13.9 µM and the TGI (XF 498 CNS) was 4.92 µM. For the same compound, the TGI (MOLT-4 leukemia) was 5.1 µM, the TGI (SR leukemia) was 5.48 µM and the TGI (CCRF-CEM leukemia) was 11.9 µM. For the same compound, the TGI (OVCAR-5 ovarian) was 14.5 µM, the TGI (OVCAR-8 ovarian) was 16.3 µM and the TGI (MDA-N) was 6 µM. For the same compound, the TGI (NCI-H522 lung) was 3.57 µM, the TGI (RPMI-8226 leukemia) was 7.46 µM and the TGI (OVCAR-3 ovarian) was 21.2 µM.
